In patent US6399580B1, “Methods and compositions for stimulating tissue growth and epithelial moisturization” (The Regents of the University of California, priority 1994, dated 2002):
Several values for one entry are separate records, joined by “and”; a condition that tells them apart may be missing. Identical values can stand only once.

Experiments:
[1] = tested on: CHK cells; assay: [14C]-leucine incorporation in CHK cells; assay type: cell-based, human; conditions: GlcCER 2.5 and 5.0 μM with 10 μM ceramide; FIG. 10
Experimental: (§1) CHK cells were grown in serum-free KGM supplemented both with 0.07 mM calcium and 10 μM ceramide (CER). Increasing concentrations of glucosylceramide were added (2.5 to 10 μM), and both [^3H]-thymidine (1 μCi/ml) and [^14C]-leucine (1 μCi/ml) incorporation assays were performed.

[2] = tested on: cultured human keratinocytes; assay: [3H]-thymidine incorporation and DNA content in cultured human keratinocytes; assay type: cell-based; conditions: for DNA content / thymidine incorporation: 24 hours of treatment, Cer 5 or 10 μM, FIG. 9
Experimental: To determine the ability of exogenous glucosylceramides (GlcCER) to stimulate epidermal proliferation, we applied various concentrations of GlcCER to cultural human keratinocytes (third passage). Keratinocytes were isolated from human neonatal foreskins by a modification of the method of Pittelkow, M. R. and Scott, R. E. ( (1986) Proc. Mayo Clin. 61:771-777) Cells were added to 100 mm plastic Petri dishes at a density of 1 to 2×10^4 cells/cm^2, and grown initially in 10mls of Keratinocyte Growth Medium (KGM) (Clonetics, San Diego, Calif.) with 0.07 mM calcium. The cultures were maintained at 35° C. under 5% CO2 in air, with medium changes performed three times weekly. After the cells reached 70%-80% confluence, they were switched to KGM medium containing 1.2 mM calcium, and harvested at one week post-confluence. GlcCER was added for the last 24 hours of culture and ^3H-thymidine (1 μCi/ml) was added one-to-three hours prior to harvesting of cells for measurement of DNA synthesis and DNA content. (Proksch, E., et al., J. Clin. Invest. 87:1668-1673 (1991).
Using the method described in Example 5, incorporation of [^3H]-thymidine and total DNA content were measured in cultured human keratinocytes (CHK) grown in serum-free keratinocyte growth medium (KGM) supplemented with 0.07 mM .calcium. Cultured cell were further supplemented as indicated, with ceramide (Cer; 5 or 10 μM), glucosylceramide (GlcCER; 1.25 or 2.5 μM), or a combination of ceramide and glucosylceramide (10 and 1.25 μM, respectively).
as §1
CHK cells were grown (as in Example 6)in serum-free KGM (0.07 mM calcium) and supplemented with increasing concentrations of ceramide (CER) alone (dark bars), glucosylceramide (GlcCer) alone (back row), or the combination of ceramide (10 μM) with increasing glucosylceramide (front row). […] Glucosylceramide alone again stimulated thymidine incorporation (>20%) at low concentrations (1.25 and 2.5 μM).
CHK cells were grown (as in Example 6) in serum-free KGM ([…]) supplemented with glucosylceramide (GlcCER) alone, or in combination with the β-glucocerebrosidase-inhibitor, CBE (3 or 10 μM) (FIG. 12). Incorporation of [^3H]-thymidine was measured at 24 hours following supplementation, and values are reported as percent of unsupplemented controls (mean ±S.D.; n>6). […] A low CBE concentration (3 μM) was ineffective.

[3] = tested on: murine epidermis; assay: Epidermal DNA synthesis, [3H]-thymidine incorporation in vivo; design: species or system mouse
Experimental: To assess the effects of a topical β-glucocerebrosidase inhibitor, conduritol-B-epoxide (CBE) in epidermal DNA synthesis two slightly different dosage protocols have been employed. In all cases, mice were treated topically with 20 μl to 40 μl of 250 nmol/μl CBE bid for 2-5 days on the right flank. On the last day, the mice were injected intraperitoneally with ^3H-thymidine (1 μCi/G body weight) diluted 1:10 in 100-200 μl isotonic NaCl. After one hour the mice were sacrificed. Whole skin was excised and subcutaneous fascia and fat were removed by scraped. Skin samples were placed dermis side downward onto 10 mM EDTA in phosphate buffered saline (PBS-CMF; pH 7.4) and incubated at 37° C. for 40 min. The skin was blotted dry with a tissue and epidermis removed by scraping with a surgical blade. The epidermis was minced into small pieces and placed in microcentrifuge vials. Samples were immediately snap frozen and stored in liquid nitrogen until immediately prior to preparation of the epidermal homogenates. 300 μl of 10 mM EDTA in PBS-CMF (pH 7.4) was added to all samples which then underwent tissue homogenization using Polytron (15 sec, ×2 on ice. Polytron tip was rinsed between each homogenization with 400 μl 10 mM EDTA in PBS-CMF. Rinses were combined with same original samples. Samples were sonicated twice for 10 sec on ice. 100 μl of 20% TCA was added and left for 10 min at 4° C. Samples were centrifuged at 2000×g at 4° C. for 5 min. The supernatant was discarded. 500 μl of 5% TCA was added and the samples were centrifuged at 2000×g at 4° C. for 5 min. The supernatant was discarded and this step was repeated again. The precipitate was resuspended in 1ml of 1N NaOH and vortexed. 400 μl or NaOH plus 400 μl of 1N HCl with 8ml Ecolume was used as a background blank. Vials were counted the following day.
We next determined whether the topical administration of structurally similar but less efficient β-glucosidase inhibitors would induce epidermal hyperproliferation. Animals were treated topically twice daily with either Conduritol-B-epoxide, Conduritol B (CB), or deoxynojirimycin (dNJM), each at 40 μl of 250 nmol/μl twice daily, as described in Example 10. After 24 hours, [^3H]-thymidine was injected intraperitoneally and incorporation of thymidine into DNA was determined (FIG. 26 A&B). […] This reduced activity is a result of the relative availability of these inhibitors to in vivo tissues.
Animals were treated as described in Example 10.
We next determined whether occlusion with a vapor-impermeable membrane would enhance the effects of a β-glucocerebrosidase inhibitor on epidermal DNA synthesis. […] After 24 hrs animals were injected with [^3H]-thymidine, and incorporation into DNA was determined (Proksch, et. al., J. Clin. Invest. 87:1668-1673, 1991).

[4] = tested on: acetone treated skin sites; assay: Barrier recovery of acetone treated skin sites; assay type: in vivo, mouse; conditions: MUX 0.5 or 1.0 %(wt:vol) topical
[5] = GlcCER 1.25 μM, 24 hours, NHK cells, n=6±S.E.
[6] = direct application of lipid alone, treated as in Example 10, FIG. 26B
[7] = topical 40 μl of 250 nmol/μl twice daily, after 24 hours

glucosylceramide [GlcCER]
leucine incorporation [1]: not altered
keratinocyte proliferation, further increase ([2]; 5 μM): No further increase
DNA content ([2]; GlcCER 1.25 μM): increased
thymidine incorporation ([2]; GlcCER 1.25 μM): increased
thymidine incorporation, increase over ceramide alone ([2]; GlcCER 1.25 μM co-administered with ceramide 10 μM, 24 hours): approximately 2 fold
DNA Content (% of Control) [2, 5]: 124 ± 2 % of Control and 111 ± 6 % of Control
^3H]-Thym. Incorporation (% of control) [2, 5]: 118 ± 0.5 % of control and 117 ± 2.0 % of control
override of the ceramide effect on thymidine incorporation ([2]; GlcCER 10 μM with 10 μM ceramide): did not override the ceramide effect
thymidine incorporation relative to ceramide-containing control ([2]; GlcCER 2.5 and 5.0 μM with 10 μM ceramide, FIG. 10): stimulated
concentration of maximum effect on keratinocyte proliferation ([2]; cultured human keratinocytes, 24 hours): 1.25 µM
inhibitory effect of ceramide on thymidine incorporation ([2]; glucosylceramide 1.25 μM coadministered with ceramide 10 μM): reversed
stimulation of thymidine incorporation ([2]; glucosylceramide alone, 1.25 and 2.5 μM): > 20%
proliferation rates ([2]; higher concentrations of GlcCER (above 1.25 and 2.5 μM)): decreased
epidermal DNA synthesis, combination of GlcCER with CBE ([3]; FIG. 26B): additive effect
epidermal DNA synthesis ([3H]-thymidine incorporation) [3, 6]: significant increase

Cc1cc(=O)oc2cc(O[C@@H]3OC[C@@H](O)[C@H](O)[C@H]3O)ccc12 [MUX, 4-methylumbelliferyl xyloside]
barrier-disrupting effect [4]: comparable to the two conduritol is compounds (BrCBE and CBE)
barrier recovery ([4]; at 2, 4 and 6 hours): delayed barrier recovery

OC[C@H]1NC[C@H](O)[C@@H](O)[C@@H]1O [dNJM, deoxynojirimycin]
epidermal DNA synthesis ([3H]-thymidine incorporation) [3, 7]: Neither CB or dNJM at this concentration induced an increase in DNA synthesis

galactosylceramide [GalCER]
epidermal DNA synthesis ([3H]-thymidine incorporation) [3, 6]: Neither GalCER nor ceramide (CER) alone at this concentration (c.f. structures in FIGS. 4 and 6) induced an increase

O[C@H]1[C@H](O)[C@@H](O)C=C[C@@H]1O [CB, Conduritol B]
epidermal DNA synthesis ([3H]-thymidine incorporation) [3, 7]: Neither CB or dNJM at this concentration induced an increase in DNA synthesis

ceramide
DNA content ([2]; GlcCER 1.25 μM): corresponding decrease in DNA content
thymidine incorporation ([2]; GlcCER 1.25 μM): inhibited thymidine incorporation
[3H]-thymidine incorporation, of control ([2]; ceramide alone 10 μM, FIG. 11): 35 % of control
inhibition of [3H]-thymidine incorporation ([2]; ceramide alone 10 μM, FIG. 11): approximately 65%
epidermal DNA synthesis ([3H]-thymidine incorporation) [3, 6]: Neither GalCER nor ceramide (CER) alone at this concentration (c.f. structures in FIGS. 4 and 6) induced an increase
